In experiment [1] the test system is Plasmodium falciparum Dd2 strain (multidrug-resistant). Description: Antiplasmodial fluorescence-based SyBr Green assay, Dd2 strain. In kind it is cell-based. As to conditions: read-out: Antiplasmodial IC50, Dd2 strain. As to the method: (§1) Parasite culture and drug susceptibility assays: Four different laboratory strains of P. falciparum were cultured in human erythrocytes by standard methods under a low oxygen atmosphere (5% O2, 5% CO2, 90% N2) in an environmental chamber (Trager, W., and J. Jensen. 1976. Human malaria parasites in continuous culture. Science 193:673-675). The culture medium was RPMI 1640, supplemented with 25 mM Hepes buffer, 25 mg/liter gentamicin sulfate, 45 mg/liter hypoxanthine, 10 mM glucose, 2 mM glutamine, and 0.5% Albumax II. The parasites were maintained in fresh human erythrocytes suspended at a 2% hematocrit in complete medium at 37° C. Stock cultures were sub-passaged every 3 to 4 days by transfer of infected red cells to a flask containing complete medium and uninfected erythrocytes.
(§2) In vitro antimalarial activity of the test compounds was assessed by a fluorescence-based method described previously by Smilkstein M., N. Sriwilaijaroen, J. X. Kelly, P. Wilairat, and M. Riscoe. 2004. Simple and inexpensive fluorescence-based technique for high-throughput antimalarial drug screening. Antimicrob Agents Chemother 48:1803-6. The experiments were set up in triplicate in 96 well plates with two-fold dilutions of each compound across the plate in a total volume of 100 μl and at a final red blood cell concentration of 2% (v/v). Stock solutions of each compound were prepared by dissolving in DMSO at 10 mM. […] In every case, an additional determination was performed to ensure bracketing of the IC50 value by at least an order of magnitude. Automated pipeting and dilution was carried out by a programmable Precision 2000 robotic station (Bio-Tek, Winooski, Vt.). An initial parasitemia of 0.2% was attained by addition of normal uninfected red cells to a stock culture of asynchronous parasite infected red cells (PRBC). The plates were incubated for 72 hrs at 37° C. in an atmosphere of 5% CO2, 5% O2, and 90% N2. After this period the SyBr Green I dye-detergent mixture (100 μl) was added and the plates were incubated at room temperature for an hour in the dark and then placed in a 96-well fluorescence plate reader (Gemini-EM, […]) for analysis with excitation and emission wavelength bands centered at 497 and 520 nm, respectively.

The subject of experiment [2] is Plasmodium falciparum 7G8 strain (multidrug-resistant). Description: Antiplasmodial fluorescence-based SyBr Green assay, 7G8 strain. In kind it is cell-based. To be noted: read-out: Antiplasmodial IC50, 7G8 strain. Here is the method: as §1, §2
Experiment [3] concerns Plasmodium falciparum D6 strain (chloroquine sensitive). Nature of the experiment: Antiplasmodial fluorescence-based SyBr Green assay, D6 strain. In kind it is cell-based. As to the method:
as §1, §2

The subject of experiment [4] is P. falciparum strains (D6, Dd2, Tm90.C2B, 7G8). Nature of the experiment: Antiplasmodial SyBr Green assay, summary across strains. In kind it is cell-based, Plasmodium falciparum. As to conditions: for IC50: Plasmodium falciparum. As to the method:
as §1
as §2, with “An initial parasitemia of 0.2% was attained by addition of normal uninfected red cells to a stock culture of asynchronous parasite infected red cells (PRBC). The plates were incubated for 72 hrs at 37° C. in an atmosphere of 5% CO2, 5% O2, and 90% N2.” left out

The subject of experiment [5] is Plasmodium falciparum Tm90.C2B strain (multidrug-resistant). Description: Antiplasmodial fluorescence-based SyBr Green assay, Tm90.C2B strain. Type of experiment: cell-based. To be noted: read-out: Antiplasmodial IC50, Tm90.C2B strain. As to the method:
as §1, §2

A further experiment relates to Plasmodium yoelii. Nature of the experiment: Modified Thompson test, suppression of patent infection in mice. To be noted: P. yoelii in CF1 mice; gavage daily for 3 days; smears on 4th day; pharmachins free base in miglyol 812, chloroquine in water. Type of experiment: in vivo.
A further experiment relates to P. berghei (ANKA/GFP). Nature of the experiment: Modified 4 day test in infected mice. Type of experiment: in vivo. Here is the method:
Follow-up studies with Pharmachin 128 were preformed in mice infected with P. berghei (ANKA/GFP) using a modified 4 day test. Animals (CF1) were inoculated (iv) with 1 million infected red blood cells, obtained from donor animals, and then randomly sorted into groups of 5 mice each.
In this set of experiments Pharmachin 128 was administered daily by gavage as the citrate salt dissolved in water (100 μl) for each of 4 days. Dosing was set at 64, 16, 4, 2, and 1 mg/kg/day, respectively, and including a no drug control. Blood films were prepared on the 5th day (i.e., the day after the final drug dose), fixed in methanol, stained with Giemsa, and viewed microscopically to assess parasitemia.

[6] abbreviates: Plasmodium falciparum, multidrug-resistant Dd2 strain, 72 hrs, mean of at least two experiments in triplicate.
[7] abbreviates: Plasmodium falciparum, multidrug-resistant 7G8 strain, 72 hrs, mean of at least two experiments in triplicate.
Setting [8] is: Plasmodium falciparum, D6, 72 h; read-out: Antiplasmodial IC50, D6 strain.
Setting [9] is: multidrug-resistant Tm90.C2B strain, 72 hrs, mean of at least two experiments in triplicate.
Setting [10] is: 64 mg/kg/day, gavage, 4 days, citrate salt.
The mark [11] stands for this setting: P. berghei in CF1 mice, citrate salt in water by gavage daily for 4 days, parasitemia on 5th day.

Like-named read-outs stand apart in the source and are kept apart here.

Method for Plasmodium yoelii: Efficacy of compounds in vivo. […] This test monitors suppression of patent infection in female CF1 Swiss albino mice (≈20 gm). A test begins with the inoculation of Plasmodium yoelii parasitized erythrocytes (100,000 to 500,000; obtained from a donor animal) on the first day of the experiment (D0). After 24 hours, the standard agents or pharmachin compounds were administered by gavage at daily intervals for three successive days. Initially the test compounds were examined at 128 mg/kg/day, 64 mg/kg/day, 16 mg/kg/day and 4 mg/kg/day and including a vehicle-only control. […] The parasite burden in each blood sample was determined by direct microscopic analysis of methanol-fixed, Giemsa-stained blood smears. […] The ED50 value is the dosage of drug required to achieve a 50% reduction in parasitemia relative to the vehicle-only control; non-linear regression analysis was employed to generate ED50s from the accumulated data.
Mice were split into groups of 3 each and animals were dosed by gavage at the following dosages: 128 mg/kg; 64 mg/kg; 16 mg/kg; and 3 mg/kg. The drugs were administered daily for 3 days and blood smears were taken on the 4th day. […] ED50 values were calculated by graphical analysis of the dose-response effect.

Usually IC50 stands for the midpoint of a concentration-inhibition curve. “5.7-Difluoro-3-Methyl-4-(3-t-butylaminpropyl-amino)-Quinoline [Pharmachin 130]”: the IC50 in experiment [1] (multidrug-resistant Dd2 strain, 72 hrs, mean of at least two experiments in triplicate) is 21.9 nM; in experiment [2] (multidrug-resistant 7G8 strain, 72 hrs, mean of at least two experiments in triplicate), 25.9 nM; in experiment [3] (chloroquine sensitive D6 strain; 72 hrs; mean of at least two experiments in triplicate; read-out: Antiplasmodial IC50, D6 strain), 15 nM.
In the case of `Cc1cnc2cc(Cl)ccc2c1N1CCN(CCCN2CCN(c3c(C)cnc4cc(Cl)ccc34)CC2)CC1` [3-methyl-piperaquine], the results for the 50% inhibitory concentration (IC50) in experiment [1] (setting [6]), in experiment [2] (setting [7]) and in experiment [3] (setting [8]) were 6.5 nM, 9.5 nM and 4.6 nM, respectively.
Regarding `CCN(CC)CCCNC1=CCNc2cc(Cl)ccc21` [AQ-13, reference compound], the “Antiplasmodial activity against all tested drug resistant strains” value in experiment [4] (in words) is recorded as “high level of antiplasmodial activity”. Also, the half-maximal inhibitory concentration (IC50) was 8.1 nM in experiment [1] (setting [6]), 12 nM in experiment [2] (setting [7]) and 7.2 nM in experiment [3] (setting [8]).
Regarding `Clc1ccc2c(NCCCNC34CC5CC(CC(C5)C3)C4)ccnc2c1` [AQ-13-AD, 7-Chloro-(3-adamantylamino)-aminopropylquinoline], the IC50 in experiment [5] (setting [9]) came out at 4.9 nM; in experiment [1] (setting [6]) it was 4.2 nM; in experiment [3] (setting [8]) it was 3.8 nM.
For `O=C1C(O)=C([C@H]2CC[C@H](c3ccc(Cl)cc3)CC2)C(=O)c2ccccc21` [Atovaquone, reference compound], the IC50 in experiment [5] (setting [9]) came to 7700 nM; in experiment [1] (setting [6]), 0.1 nM; in experiment [3] (setting [8]), 0.1 nM.
On to `CCN(CC)CCCC(C)Nc1ccnc2cc(Cl)ccc12` (stereo not shown) [Chloroquine, reference compound], for which the IC50 in experiment [5] (TM90, 72 h) amounted to 144 nM; in experiment [1] (Plasmodium falciparum, DD2, 72 h) it was 160 nM; in experiment [2] (Plasmodium falciparum, 7G8, 72 h) it was 55 nM; in experiment [3] (Plasmodium falciparum, D6, 72 h, read-out: Antiplasmodial IC50, D6 strain), 11.2 nM.
For `CCN(CC)CCCNc1c(C)cnc2cc(Cl)ccc12` [Pharmachin 112, 7-Chloro-3-Methyl-4-(3-(diethylamino)-propylamino)-Quinoline], the results for the IC50 in experiment [5] (setting [9]), in experiment [1] (setting [6]) and in experiment [3] (setting [8]) were 16.6 nM, 17.7 nM and 12.8 nM, respectively. Moreover, in the experiment with Plasmodium yoelii, the “ED50 (50% reduction in parasitemia)” value stood at 6.5 mg/kg/day.
Regarding `CCN(CC)CCNc1c(C)cnc2cc(Cl)ccc12` [Pharmachin 127, 7-Chloro-3-Methyl-4-(3-(diethylamino)-ethylamino)-Quinoline], the IC50 came to 18.3 nM in experiment [5] (setting [9]), 17.8 nM in experiment [1] (setting [6]) and 14.1 nM in experiment [3] (setting [8]).
One may read the ED50 as the dose at which the effect has come halfway, by size or by number of responders. As to `Cc1cnc2cc(Cl)ccc2c1NCCCNC(C)(C)C` [Pharmachin 128, 7-Chloro-3-Methyl-4-(3-t-butylaminopropylamino)-quinoline], the half-inhibitory concentration (IC50) was 6.2 to 12 nM in experiment [4] (range over D6, Dd2, Tm90.C2B, 7G8, read-out: IC50 values ranging, all 4 P. falciparum strains); 12 nM in experiment [5] (setting [9]); 11.6 nM in experiment [1] (setting [6]); 11.3 nM in experiment [2] (setting [7]); 6.2 nM in experiment [3] (setting [8]). Further, the “Animals recrudesced 2 weeks after the last dose” value in the experiment with P. berghei (ANKA/GFP) (16 mg/kg/day group, gavage, 4 days, citrate salt) is given as 2 of the 5. Besides, the “Bloodstream parasites on 5th day” value in the experiment on P. berghei (ANKA/GFP) (16 mg/kg/day, gavage, 4 days, citrate salt) was “completely cleared”; with P. berghei (ANKA/GFP) (setting [10]), “completely cleared”. In addition, in the experiment on P. berghei (ANKA/GFP) (setting [10]), the “Parasitemia over full 30-day examination period (scored as cures)” value is listed as “remained aparasitemic”. Also, the ED50 in the experiment on P. berghei (ANKA/GFP) (setting [11]) amounted to 2.7 mg/kg/day. The ED90 in the experiment on P. berghei (ANKA/GFP) (setting [11]) is given as 4.7 mg/kg/day. The “ED50 (50% reduction in parasitemia)” value in the experiment with Plasmodium yoelii is recorded as 2.5 mg/kg/day.
On to `Cc1cnc2ccc(Cl)cc2c1NCCCNC(C)(C)C` [Pharmachin 129, 6-Chloro-3-Methyl-4-(3-t-butylaminopropylamino)-Quinoline], for which the IC50 in experiment [1] (setting [6]) is 127 nM; in experiment [3] (setting [8]), 94.8 nM.
As to `C=C[C@H]1C[N@@]2CC[C@H]1C[C@H]2[C@H](O)c1ccnc2ccc(OC)cc12` [Quinine, reference compound], the IC50 amounted to 96 nM in experiment [5] (setting [9]), 87 nM in experiment [1] (setting [6]), 29.5 nM in experiment [2] (setting [7]) and 19 nM in experiment [3] (setting [8]).
Regarding `CCN(CC)CCCC(C)Nc1c(C)cnc2cc(Cl)ccc12` (stereo not shown) [Sontochin, 3-methyl-chloroquine, reference compound], the IC50 in experiment [4] (range over strains as worded in text, read-out: IC50 values ranging, drug resistant strains of P. falciparum) was 8.6 to 13.8 nM; in experiment [5] (setting [9]), 13.8 nM; in experiment [1] (setting [6]), 11.3 nM; in experiment [3] (setting [8]), 8.6 nM.

The values are drawn from US8481543B2, “Compounds for treating parasitic disease” (Oregon Health & Science University, priority 2008, dated 2013).
